{"source": "patent US20250120942A1", "about": "“BRAIN FUNCTION IMPROVING AGENT” (OSAKA UNIVERSITY, priority 2021, published 2025)", "key": {"[1]": {"system": "extracellular acetylcholine in the cerebral cortex", "assay": "Amount of extracellular acetylcholine in mouse brain by in vivo microdialysis (Test Example 1)", "design": "species or system ddY mouse", "settings": "for amount of extracellular acetylcholine in the cerebral cortex (ratio to basic released amount): oral 30 mg/kg, measured for 120 minutes after administration, compared with before administration, FIG. 1", "method": "The compound A, B, and C were administered orally to the mouse and the effect on the amount of extracellular acetylcholine in the brain was examined. The brain microdyalysis method using the mouse is proposed as a test for evaluating cognitive dysfunction including Alzheimer type dementia. The brain microdyalysis method is a system that can monitor the variation of extracellular neurotransmitter release in real time at the local parts in the brain while the test animals are moving freely without anesthesia.\n(§1) 7-weeks-old male ddY mice were purchased from Japan SLC, Inc. and subjected to the experiment after one week habituation period. The animals were reared in the rearing chamber provided with air conditioner (under the condition that the temperature was 22° C.±1° C., the relative humidity was 50±10%, and the irradiation time was 12 hours (8:00 to 20:00)). The feeding method was that the commercially available MF powdery feed (manufactured by Oriental Yeast Co., ltd.) and tap water were taken freely.\nIn the two days before the start of the experiment, the fixing operation of the guide cannula for inserting the dialysis probe in the mouse was conducted in advance. Under the deep anesthetized conditions, the guide cannula (depth 4 mm) (manufactured by Eicom Corp.,) was inserted in and fixed on cerebral cortex prefrontal area (which was 1.9 mm forward and 0.5 mm right side from the bregma and to which the depth from cranial surface was 0.8 mm). Buprenorphine (0.01 mg/kg manufactured by Sigma-Aldrich Japan) was administered to the mouse as analgesic after the operation. Each mouse was reared in the separate cage after the operation.\nIn the step of measuring extracellular acetylcholine in the brain, the dialysis probe (membrane length 3 mm) (manufactured by Eicom Corp.,) was inserted in the guide cannula and the Ringer's solution in the Japanese Pharmacopeia (containing NaCl (147.2 mM), KCl (4.0 mM), and CaCl2 (2.2 mM); manufactured by FUSO CHEMICAL CO., LTD.) was perfused at the flow velocity of 1 μL/min. The sample obtained by the perfusion was collected every 20 minutes and was immediately continuously automatically injected in the high-speed liquid chromatography/electrochemical detector (HPLC/ECD) system (manufactured by Eicom Corp., HTEC-500) together with the internal standard material (isopropylhomocholine, 250 fmol) and acetylcholine was measured under the condition described below.\n• Column: Eicompak AC-GEL (2.0 mm; i.d.×150 mm) (manufactured by Eicom Corp.,) • Precolumn: PC-05-03 (3.0 mm; i.d.×40 mm) (manufactured by Eicom Corp.,) • Enzyme-immobilized column: AC-Enzympak (3.0 mm; i.d.) (manufactured by Eicom Corp.,) • Mobile Phase: 50 mM potassium hydrogen carbonate buffer containing 400 mg/L sodium decansulfonic acid and 134 μM EDTA (pH 8.3) • Flow Velocity: 150 μl/min. • Temperature of column: 33° C. • Applied voltage of ECD: +450 mV • Reference electrode: Ag/AgCl electrode • Work electrode: platinum electrode\nThe compound A prepared according to the procedure described in Manufacturing Example 1 was dissolved in 2.5% DMSO solution in advance to prepare for the test. […] The amount of the extracellular acetylcholine released was measured by the procedure described above in (a) Used animal and Rearing Procedure in real time for 120 minutes after the administration. The mouse in Vehicle group took only 2.5% DMSO solution orally in the same way and the amount of the extracellular acetylcholine was measured. […]"}, "acetylcholine esterase": {"target": "acetylcholine esterase (Homo sapiens, UniProt P22303)", "sequence (P22303 32-614)": "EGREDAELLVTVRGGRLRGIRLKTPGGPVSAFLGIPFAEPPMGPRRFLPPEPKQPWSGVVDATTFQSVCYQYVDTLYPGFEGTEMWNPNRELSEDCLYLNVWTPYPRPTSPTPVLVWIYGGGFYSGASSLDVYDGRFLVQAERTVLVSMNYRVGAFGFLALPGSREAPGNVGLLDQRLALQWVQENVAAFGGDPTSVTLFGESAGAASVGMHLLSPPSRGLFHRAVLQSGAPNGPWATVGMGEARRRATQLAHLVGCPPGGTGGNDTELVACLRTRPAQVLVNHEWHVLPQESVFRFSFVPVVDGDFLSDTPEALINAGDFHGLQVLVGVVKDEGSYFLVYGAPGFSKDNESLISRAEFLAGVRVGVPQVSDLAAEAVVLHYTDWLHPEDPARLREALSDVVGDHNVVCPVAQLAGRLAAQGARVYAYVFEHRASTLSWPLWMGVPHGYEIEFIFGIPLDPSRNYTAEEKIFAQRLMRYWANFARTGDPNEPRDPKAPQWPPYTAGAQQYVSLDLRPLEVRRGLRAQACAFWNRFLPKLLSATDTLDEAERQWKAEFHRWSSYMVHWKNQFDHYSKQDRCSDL", "assay": "Inhibiting action of acetylcholine esterase (data not described)", "format": "biochemical"}, "[2]": {"system": "cranial nerve cell SH-SY5Y", "settings": "SH-SY5Y in vitro; cited from earlier work"}, "[3]": {"settings": "mouse, oral administration; cited from earlier work"}, "[4]": {"system": "cytotoxicity induced by β-oligomer", "settings": "cited from earlier work"}, "[5]": {"settings": "cited from earlier work"}, "amyloid β": {"system": "amyloid β", "settings": "mouse model of the Alzheimer's disease; cited from earlier work"}, "[6]": {"system": "scopolamine-induced amnesia mouse", "assay": "Y-maze test, short-term working memory of scopolamine-induced amnesia mouse (Test Example 2)", "format": "in vivo, ddY mouse", "settings": "oral 30 mg/kg, scopolamine 1 mg/kg i.p.; FIG. 2(A),(B)", "method": "The effect of inhibiting lowering of short-term memory was examined by orally or subcutaneously (intraperitoneally) administering the compound A to the mouse.\nas §1\nThe compound A prepared according to the procedure described in Manufacturing Example 1 was dissolved in 2.5% DMSO solution in advance. There were 15 mice in each group, and the 30 mg/kg compound administration group and the 10 mg/kg compound administration group were established and orally administered. The mice of the control group and Vehicle group were orally administered with only 2.5% DMSO solution. In the same manner the compound B and the compound C were orally administered to 10 mice at a dose of 30 mg/kg respectively. Each mouse of the administration groups of the compound A to C and the vehicle group was intraperitoneally administered with scopolamine hydrobromide (manufactured by Sigma-Aldrich Japan S1875) (a dose of 1 mg/kg) which is muscarinic acetylcholine receptor antagonist 30 minutes after the administration. The mice of the control group which were not administered with scopolamine hydrobromide were intraperitoneally administered with (Japanese Pharmacopoeia) physiological saline solution (OTSUKA NORMAL SALINE 3311401A2026). At 30 minutes after the final administration, Y-maze test was conducted, and the working memory was evaluated. The test using the mice orally administered was separately conducted under the same condition as that described above for comparative evaluation of the intraperitoneal administration.\nThe Y-maze manufactured by Brain Science. idea Co., Ltd. was used for the test. The maze was the maze 3 courses of which were made into Y-letter shape having one selection point and arranged at interval of an angle of 120 degree. […] The mouse put on the gray course (made of polyvinyl chloride) was kept in the conditions and the mouse can see nothing but the upper part. Any one of the 3 courses of the maze was set as a starting point. After placing the mouse quietly at the starting point, the number of the times the mouse entered each course was record per 8 minutes, and as well as which course and in what order the mouse entered it. The ratio of the number of three consecutive entries into different courses (the number of the alternation behavior) to the total number of the selections was calculated as Spontaneous Alternation (%) according to the following formula and was used as an index of the short-term working memory.\nFrom the results obtained, the mean (Mean) and the standard error (SEM) were calculated. The significant difference between the control group and the Vehicle group and between the compound A administration group and the Vehicle group was assessed by Turkey-Kramer's test. The level of significance was set to *P<0.05 and **p<0.01."}}, "data": [{"smiles": "O=C1CCC(Cc2cc(O)cc(O)c2)O1", "note": "(centres unmarked) [5-(3,5-dihydroxyphenyl)-γ-valerolactone]", "values": [{"measurement": "time until which the increased amount of free acetylcholine is maintained", "setting": "[1]; after the administration", "value": "≤ 100", "unit": "min"}, {"measurement": "inhibiting action of acetylcholine esterase", "setting": "acetylcholine esterase", "value": "do not provide inhibiting action"}, {"measurement": "nerve cell proliferating action", "setting": "[2]", "value": "significant nerve cell proliferating action"}, {"measurement": "sulfate conjugate and glucuronic acid conjugate in the serum", "setting": "[3]", "value": "detected"}]}, {"smiles": "O=C1CCC(Cc2ccc(O)cc2)O1", "note": "(centres unmarked) [5-(4-monohydroxyphenyl)-γ-valerolactone]", "values": [{"measurement": "cytotoxicity induced by β-oligomer", "setting": "[4]", "value": "reduces the cytotoxicity"}]}, {"smiles": "O=C(O[C@@H]1Cc2c(O)cc(O)cc2O[C@@H]1c1cc(O)c(O)c(O)c1)c1cc(O)c(O)c(O)c1", "note": "[EGCg, epigallocatechingallate]", "values": [{"measurement": "amount absorbed into the body after ingestion (bioavailability)", "setting": "[5]", "value": "extremely low"}, {"measurement": "generation of amyloid β", "setting": "amyloid β", "value": "inhibit the generation of amyloid β"}]}, {"smiles": "O=C1CC[C@H](Cc2ccc(O)c(O)c2)O1", "note": "[compound B, (R)-5-(3,4-dihydroxyphenyl)-γ-valerolactone, reference compound]", "values": [{"measurement": "amount of extracellular acetylcholine in the cerebral cortex (ratio to basic released amount)", "setting": "[1]", "value": "not significant change"}, {"measurement": "ameliorating the impairment of short-term working memory (Spontaneous Alternation)", "setting": "[6]", "value": "not confirmed at all"}]}, {"smiles": "O=C1CC[C@H](Cc2cc(O)c(O)c(O)c2)O1", "note": "[compound C, (R)-5-(3,4,5-trihydroxyphenyl)-γ-valerolactone, reference compound]", "values": [{"measurement": "amount of extracellular acetylcholine in the cerebral cortex (ratio to basic released amount)", "setting": "[1]", "value": "not significant change"}, {"measurement": "ameliorating the impairment of short-term working memory (Spontaneous Alternation)", "setting": "[6]", "value": "not confirmed at all"}]}]}
